Here are results for 22 molecules from publication PMC9435431, “Novel chemical entities inhibiting Mycobacterium tuberculosis growth identified by phenotypic high-throughput screening” (Scientific Reports, 2022).

Where only a bound is given, the exact number is not on record here.

Assay [1] concerns M. tuberculosis MmpL3 F255L mutant strain. The class given is cell-based, Mycobacterium tuberculosis.
Assay [2] deals with M. tuberculosis MmpL3 G253E mutant strain. The class given is cell-based, Mycobacterium tuberculosis.
In assay [3] the test system is M. tuberculosis MmpL3 Y252C mutant strain. The class given is cell-based, Mycobacterium tuberculosis.
The subject of assay [4] is M. tuberculosis MmpL3 Y252S mutant strain. The class given is cell-based, Mycobacterium tuberculosis.
In assay [5] the test system is M. tuberculosis. The class given is cell-based.
In assay [6] the test system is M. tuberculosis QcrB A396T mutant strain. The class given is cell-based, Mycobacterium tuberculosis.

For the molecule `Cc1nc(-c2ccccn2)nc(NCCNc2ccc(C(F)(F)F)cn2)c1Cl` [APDP-2], in assay [1], the Fold change turned out to be 0.5 and the IC90 is 15 µM.

On to `CC(=O)c1ccc(NC(=O)NC(C)C23CC4CC(CC(C4)C2)C3)cc1` (stereo not shown) [HBU-3], for which, in assay [1], the Fold change is 2.4 and it took 71 µM to reach the 90% level (IC90).

In assay [1], `Cc1cc(NC2CCCCC2)nc(-n2nc(C)cc2C)n1` [PZP-3] showed a Fold change of 10 and an IC90 of 46 µM.

Regarding `CC1C(CNC(=O)Nc2ccccc2)CC2CC1C2(C)C` (stereo not shown) [HBU-2], in assay [1], the Fold change came to 8.0 and it took 39 µM to reach the 90% level (IC90).

In the case of `CC(C)(C)CC(C)(C)N1CCC(c2ccccc2)CC1` [Molecule 4PP-44, 4-Phenyl-1-(1,1,3,3-tetramethyl-butyl)-piperidine], in assay [1], the Fold change is 3.5 and it took 18 µM to reach the 90% level (IC90).

Regarding `O=C(NCCc1cccc(Br)c1)C1(c2ccccc2Br)CCC1` [PCB-21, N-(3-bromophenethyl)-1-(2-bromophenyl)cyclobutane-1-carboxamide], the “MmpL3 F255L MIC” value in assay [1] was found to be 22 µM. Further, the “MmpL3 G253E MIC” value in assay [2] is reported as 41 µM. In assay [3], the “MmpL3 Y252C MIC” value was determined as 96 µM. Besides, in assay [4], the “MmpL3 Y252S MIC” value is more than 100 µM. Moreover, in assay [5], the frequency of resistance is on record as 5.26 × 10^−8.

Take `CC(NC(=O)Nc1nc(-c2ccc(Cl)cc2)cs1)C1CC2C=CC1C2` (stereo not shown) [HBU-5]: in assay [1], the Fold change is recorded as 0.5 and the IC90 amounted to 6.9 µM.

Take `O=C(O)C(F)(F)F.c1ccc2c(C3CCN(CC4CCCCC4)CC3)cccc2c1` [Molecule 4PP-31, 1-(Cyclohexylmethyl)-4-(1-naphthyl)piperidine; 2,2,2-trifluoroacetic acid]: in assay [1], the Fold change was determined as 15 and the IC90 turned out to be 45 µM.

In the case of `O=C(NCCc1cccc(Br)c1)C1(c2ccc(F)cc2)CCC1` [PCB-19, N-(3-bromophenethyl)-1-(4-fluorophenyl)cyclobutane-1-carboxamide], the “MmpL3 F255L MIC” value in assay [1] worked out at 3 µM. In addition, in assay [2], the “MmpL3 G253E MIC” value stood at 20 µM. Besides, the “MmpL3 Y252C MIC” value in assay [3] is given as 45 µM. Also, the “MmpL3 Y252S MIC” value in assay [4] stood at 35 µM. The frequency of resistance in assay [5] was 7.0 × 10^−8.

In assay [1], `Cc1cc(C)n(-c2nc(N)cc(-c3cccc(F)c3)n2)n1` [PZP-2] registered a Fold change of more than 13 and an IC90 of more than 100 µM.

`Cc1ccccc1C1(C(=O)NCCc2cccc(Br)c2)CCC1` [PCB-23, N-(3-bromophenethyl)-1-(o-tolyl)cyclobutane-1-carboxamide]: the “MmpL3 F255L MIC” value in assay [1] was found to be 8.0 µM. Further, the “MmpL3 G253E MIC” value in assay [2] is recorded as 27 µM. For the same molecule, the “MmpL3 Y252C MIC” value in assay [3] is 83 µM. For the same molecule, in assay [4], the “MmpL3 Y252S MIC” value worked out at 82 µM.

In assay [1], `O=C(NCCc1ccc(Br)cc1)NC12CC3CC(CC(C3)C1)C2` [HBU-4] showed a Fold change of more than 8.3 and an IC90 of more than 100 µM.

In assay [1], `CNc1cc(-c2ccccn2)nc(-c2ccccn2)n1` [APDP-1] registered a Fold change of 0.9 and an IC90 of 9.2 µM.

`O=C(NCCc1cccc(Br)c1)C1(c2cccc(Cl)c2)CCC1` [PCB-16, N-(3-bromophenethyl)-1-(3-chlorophenyl)cyclobutane-1-carboxamide]: the “MmpL3 F255L MIC” value in assay [1] came out at 8.0 µM. For the same molecule, the “MmpL3 G253E MIC” value in assay [2] came out at 75 µM. In addition, in assay [3], the “MmpL3 Y252C MIC” value came to 43 µM. The “MmpL3 Y252S MIC” value in assay [4] is given as 50 µM.

In assay [1], `COc1ccc(-c2cc(N)nc(-n3nc(C)cc3C)n2)cc1` [PZP-1] showed a Fold change of more than 19 and a 90% effect concentration (IC90) of more than 100 µM.

In the case of `Cc1nc(-c2ccccn2)nc(NCc2ccccc2)c1Cl` [APDP-3], in assay [1], the Fold change turned out to be 3.5 and the 90% effect level (IC90) was put at 22 µM.

Take `O=C(O)C(F)(F)F.c1cc(C2CCN(CC3CCCCC3)CC2)ccn1` [Molecule 4PP-32, 4-[1-(Cyclohexylmethyl)-4-piperidyl]pyridine, 2,2,2-trifluoroacetic acid salt]: the frequency of resistance in assay [5] was 7.35 × 10^−8.

As to `O=C(Nc1nc2ccccc2s1)NC1C2CC3CC(C2)CC1C3` (stereo not shown) [HBU-1], in assay [1], the Fold change was found to be 1.4 and the 90% effect level (IC90) was put at 6 µM.

In the case of `CC(=O)n1nccc1-c1sc(-c2cccs2)nc1C` [TPT], in assay [6], the Fold-change came to 8.9, it took 63 µM to reach the 90% level (IC90) and the “activity against the QcrB mutant strain (in words)” value is listed as “≥ threefold lower activity”.

Regarding `O=C(NCCc1cccc(Br)c1)C1(c2ccccc2Cl)CCC1` [PCB-17, N-(3-bromophenethyl)-1-(2-chlorophenyl)cyclobutane-1-carboxamide], the “MmpL3 F255L MIC” value in assay [1] is reported as 9.0 µM. In assay [2], the “MmpL3 G253E MIC” value turned out to be 28 µM. In addition, the “MmpL3 Y252C MIC” value in assay [3] is given as 94 µM. Besides, the “MmpL3 Y252S MIC” value in assay [4] is reported as 87 µM.

With `CCC1(N2CCC(c3ccccc3)CC2)CCCCC1` [Molecule 4PP-1, 1-(1-Ethyl-cyclohexyl)-4-phenyl-piperidine], in assay [1], the Fold change is recorded as 11, the IC90 worked out at 68 µM and the “MmpL3 F255L MIC” value turned out to be 68 µM. Further, the “MmpL3 G253E MIC” value in assay [2] stood at 91 µM. The “MmpL3 Y252C MIC” value in assay [3] was determined as 30 µM. For the same molecule, in assay [4], the “MmpL3 Y252S MIC” value stood at 93 µM.

As for `Cc1ccc(-c2nnc(C)c(N3CCCC3)n2)cc1` [PYT], in assay [6], the Fold-change is listed as 5.8, the IC90 stood at 62 µM and the “activity against the QcrB mutant strain (in words)” value is given as “≥ threefold lower activity”.

As a reminder, the IC90 is the concentration at which the effect reaches the 90% level. Lower therefore signals an effect from little substance.
